Measured values published in paper PMC10447463, “Data-mining unveils structure–property–activity correlation of viral infectivity enhancing self-assembling peptides” (Nature Communications, 2023).
Like-named read-outs stand apart in the source and are kept apart here.

Columns and labels:
[1] = type: physicochemical; set-up: key to Fibril / Fibril Formation / TEM 2cat / Fibril: 1 = fibrils present; 0 non-fibrillar structures; conditions: for Fibril / Fibril / Fibril Formation: TEM; for Fibril / Fibril Formation: 1 mg/mL, uranyl acetate stain, qualitative
[2] = type: physicochemical; conditions: for ThT Cat. / ThT-Fluorescence (categorical): ThT-active if fluorescence at least twice the control
Method in brief: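 Fibrils (1 mg/mL solution) were mixed with 50 µM ThT in PBS for 15 min at RT, and fluorescence was read at λex 440/λem 488 nm against a PBS blank, as a triplicate mean ± SD. Zeta potential came from electrophoretic mobility (Smoluchowski) after 1 d aggregation at 1 mg/mL in PBS pH 7.4, diluted into 1 mM KCl.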

[3] = Fig S10 panel D, fibril category by TEM
[4] = FigS12 panel A, fibril category by TEM
[5] = 1 = fibrils present, 0 = non-fibrillar
[6] = 1 = fibrils present, 0 = non-fibrillar structures
[7] = ThT fluorescence category, 1 if Rel. ThT >2
[8] = category: fibrils present or non-fibrillar

KAKAQANM
TEM 2cat [1, 3]: 0 | TEM 2cat [1, 4]: 0 | Fibril ([1]; FigS12 panel B): 0 | Fibril / Fibril Formation [1]: 0 | Fibril [1, 5]: 0 | Fibril [1, 6]: 0 | Tht category (> 2 to blank = +) ([2]; Fig S10 panel D): 0 (ThT-inactive (N-Fold <2)) | Tht category (> 2 to blank = +) ([2]; FigS12 panel A): 0 (ThT-inactive (N-Fold <2)) | ThT Cat, ([2]; FigS12 panel B): 0 (ThT-inactive (N-Fold <2)) | ThT Cat, ([2]; ThT category, 1 if Rel. ThT >2): 0 (ThT-inactive (N-Fold <2)) | ThT Cat. [2, 7]: 0 (ThT-inactive (N-Fold <2)) | ThT Cat. / ThT-Fluorescence (categorical) [2]: 0 (ThT-inactive (N-Fold <2)) | Rel. ThT ([2]; n-fold ThT fluorescence vs control (PBS, 10% DMSO), 4 µL 1 mg/mL fibrils + 20 µL 50 µM ThT, 15 min RT, ex 440 / em 488 nm, triplicate): 1.1

ILKNLSRSRKIKIQINMWQ
TEM 2cat [1, 3]: 1 | Fibril / Fibril Formation [1]: 1 | Fibril [1, 5]: 1 | Fibril [1, 6]: 1 | TEM 2cat [1, 8]: 1 | Tht category (> 2 to blank = +) ([2]; Fig S10 panel D): 1 (ThT. Cat is 1, if Rel. ThT >2) | ThT Cat, ([2]; ThT category, 1 if Rel. ThT >2): 1 (ThT. Cat is 1, if Rel. ThT >2) | ThT Cat. ([2]; ThT category, 1 if Rel. ThT >2): 1 (ThT. Cat is 1, if Rel. ThT >2) | ThT Cat. / ThT-Fluorescence (categorical) [2]: 1 (ThT. Cat is 1, if Rel. ThT >2)

KIKIQINMWWWQ
TEM 2cat [1, 3]: 0 | Fibril / Fibril Formation [1]: 0 | Fibril [1, 5]: 0 | Fibril [1, 6]: 0 | TEM 2cat [1, 8]: 0 | Tht category (> 2 to blank = +) ([2]; Fig S10 panel D): 0 (ThT-inactive (N-Fold <2)) | ThT Cat, ([2]; ThT category, 1 if Rel. ThT >2): 0 (ThT-inactive (N-Fold <2)) | ThT Cat. ([2]; ThT category, 1 if Rel. ThT >2): 0 (ThT-inactive (N-Fold <2)) | ThT Cat. / ThT-Fluorescence (categorical) [2]: 0 (ThT-inactive (N-Fold <2))

CKIKQIIRGD
Fibril ([1]; FigS12 panel B): 0 | Fibril / Fibril Formation [1]: 0 | Fibril [1, 5]: 0 | Fibril [1, 6]: 0 | ThT Cat, ([2]; FigS12 panel B): 0 (ThT-inactive (N-Fold <2)) | ThT Cat, ([2]; ThT category, 1 if Rel. ThT >2): 0 (ThT-inactive (N-Fold <2)) | ThT Cat. [2, 7]: 0 (ThT-inactive (N-Fold <2)) | ThT Cat. / ThT-Fluorescence (categorical) [2]: 0 (ThT-inactive (N-Fold <2))

HHHHKIKIKIKIYYYY
TEM 2cat [1, 3]: 0 | Fibril / Fibril Formation [1]: 0 | Fibril [1, 5]: 0 | Fibril [1, 6]: 0 | TEM 2cat [1, 8]: 0 | Tht category (> 2 to blank = +) ([2]; Fig S10 panel D): 1 (ThT. Cat is 1, if Rel. ThT >2) | ThT Cat, ([2]; ThT category, 1 if Rel. ThT >2): 1 (ThT. Cat is 1, if Rel. ThT >2) | ThT Cat. [2, 7]: 1 (ThT. Cat is 1, if Rel. ThT >2) | ThT Cat. / ThT-Fluorescence (categorical) [2]: 1 (ThT. Cat is 1, if Rel. ThT >2)

ILKNLSRSRKIKIQIC
TEM 2cat [1, 3]: 1 | Fibril / Fibril Formation [1]: 1 | Fibril [1, 5]: 1 | Fibril [1, 6]: 1 | TEM 2cat [1, 8]: 1 | Tht category (> 2 to blank = +) ([2]; Fig S10 panel D): 1 (ThT. Cat is 1, if Rel. ThT >2) | ThT Cat, ([2]; ThT category, 1 if Rel. ThT >2): 1 (ThT. Cat is 1, if Rel. ThT >2) | ThT Cat. [2, 7]: 1 (ThT. Cat is 1, if Rel. ThT >2) | ThT Cat. / ThT-Fluorescence (categorical) [2]: 1 (ThT. Cat is 1, if Rel. ThT >2)

CQFQFQF
TEM 2cat [1, 3]: 1 | Fibril / Fibril Formation [1]: 1 | Fibril [1, 5]: 1 | Fibril [1, 6]: 1 | TEM 2cat [1, 8]: 1 | Tht category (> 2 to blank = +) ([2]; Fig S10 panel D): 1 (ThT. Cat is 1, if Rel. ThT >2) | ThT Cat, ([2]; ThT category, 1 if Rel. ThT >2): 1 (ThT. Cat is 1, if Rel. ThT >2) | ThT Cat. [2, 7]: 1 (ThT. Cat is 1, if Rel. ThT >2) | ThT Cat. / ThT-Fluorescence (categorical) [2]: 1 (ThT. Cat is 1, if Rel. ThT >2)

KLKLKLQL
TEM 2cat [1, 3]: 1 | TEM 2cat [1, 4]: 1 | Fibril ([1]; FigS12 panel B): 1 | Fibril / Fibril Formation [1]: 1 | Fibril [1, 5]: 1 | Fibril [1, 6]: 1 | Tht category (> 2 to blank = +) ([2]; Fig S10 panel D): 0 (ThT-inactive (N-Fold <2)) | Tht category (> 2 to blank = +) ([2]; FigS12 panel A): 0 (ThT-inactive (N-Fold <2)) | ThT Cat, ([2]; FigS12 panel B): 0 (ThT-inactive (N-Fold <2)) | ThT Cat, ([2]; ThT category, 1 if Rel. ThT >2): 0 (ThT-inactive (N-Fold <2)) | ThT Cat. [2, 7]: 0 (ThT-inactive (N-Fold <2)) | ThT Cat. / ThT-Fluorescence (categorical) [2]: 0 (ThT-inactive (N-Fold <2))

KIKIQIW
TEM 2cat [1, 3]: 1 | Fibril / Fibril Formation [1]: 1 | Fibril [1, 5]: 1 | Fibril [1, 6]: 1 | TEM 2cat [1, 8]: 1 | Tht category (> 2 to blank = +) ([2]; Fig S10 panel D): 1 (ThT. Cat is 1, if Rel. ThT >2) | ThT Cat, ([2]; ThT category, 1 if Rel. ThT >2): 1 (ThT. Cat is 1, if Rel. ThT >2) | ThT Cat. ([2]; ThT category, 1 if Rel. ThT >2): 1 (ThT. Cat is 1, if Rel. ThT >2) | ThT Cat. / ThT-Fluorescence (categorical) [2]: 1 (ThT. Cat is 1, if Rel. ThT >2)
